Experimental data reported in the NIST ThermoML archive (doi:10.1016/j.jct.2006.03.021).
± gives the expanded uncertainty stated by the source.

Experiment: molar heat capacity at constant pressure
Settings: 101.33 kPa, Crystal, Vacuum adiabatic calorimetry

O.O.OC[C@H]1O[C@H](O[C@H]2O[C@H](CO)[C@@H](O)[C@H](O)[C@H]2O)[C@H](O)[C@@H](O)[C@@H]1O [D-(+)-trehalose dihydrate]
Settings	molar heat capacity at constant pressure [J/K/mol]
145.72 K	245.6 ± 0.58
147.72 K	248.78 ± 0.59
149.71 K	251.89 ± 0.6
150 K	252.32 ± 0.6
151.71 K	254.95 ± 0.6
153.75 K	258.14 ± 0.61
155.79 K	261.37 ± 0.62
157.84 K	264.6 ± 0.62
159.89 K	267.82 ± 0.63
160 K	267.93 ± 0.63
161.93 K	270.95 ± 0.64
163.96 K	274.13 ± 0.64
165.96 K	277.24 ± 0.65
167.95 K	280.33 ± 0.66
169.92 K	283.36 ± 0.66
170 K	283.46 ± 0.66
171.88 K	286.43 ± 0.67
173.83 K	289.42 ± 0.68
175.76 K	292.43 ± 0.68
177.63 K	295.3 ± 0.69
179.56 K	298.22 ± 0.69
180 K	299 ± 0.7
181.49 K	301.33 ± 0.7
183.41 K	304.3 ± 0.71
185.35 K	307.28 ± 0.71
187.29 K	310.3 ± 0.72
189.22 K	313.27 ± 0.72
190 K	314.53 ± 0.73
191.14 K	316.25 ± 0.73
193.07 K	319.27 ± 0.74
195.02 K	322.27 ± 0.74
196.95 K	325.32 ± 0.75
198.87 K	328.28 ± 0.76
200 K	330.09 ± 0.76
200.8 K	331.37 ± 0.76
202.74 K	334.35 ± 0.77
204.67 K	337.37 ± 0.78
206.6 K	340.29 ± 0.78
208.53 K	343.33 ± 0.79
210 K	345.69 ± 0.79
210.48 K	346.48 ± 0.79
212.42 K	349.61 ± 0.8
214.34 K	352.52 ± 0.81
216.28 K	355.42 ± 0.81
220 K	361.36 ± 0.83
220.18 K	361.71 ± 0.83
222.12 K	364.67 ± 0.83
224.04 K	367.73 ± 0.84
225.95 K	370.88 ± 0.85
227.85 K	373.65 ± 0.85
229.74 K	376.66 ± 0.86
230 K	377.12 ± 0.86
231.62 K	379.52 ± 0.86
233.49 K	382.68 ± 0.87
235.35 K	385.55 ± 0.88
237.2 K	388.42 ± 0.88
239.04 K	391.36 ± 0.89
240 K	392.98 ± 0.89
240.87 K	394.34 ± 0.89
242.69 K	397.3 ± 0.9
244.52 K	400.18 ± 0.91
246.37 K	403.04 ± 0.91
248.24 K	406.16 ± 0.92
250 K	408.95 ± 0.92
250.12 K	409.17 ± 0.93
252 K	412.27 ± 0.93
253.8 K	415.1 ± 0.94
255.61 K	417.77 ± 0.94
257.43 K	420.98 ± 0.95
259.28 K	423.94 ± 0.96
260 K	425.06 ± 0.96
261.14 K	426.99 ± 0.96
263.01 K	430.01 ± 0.97
264.88 K	433.05 ± 0.98
266.76 K	435.05 ± 0.98
268.64 K	439.07 ± 0.99
270 K	441.31 ± 0.99
270.53 K	442.21 ± 0.99
272.4 K	445.33 ± 1
274.28 K	448.34 ± 1
276.17 K	451.18 ± 1
278.06 K	454.48 ± 1
279.95 K	457.55 ± 1
280 K	457.7 ± 1
281.85 K	460.72 ± 1
283.75 K	463.95 ± 1
285.66 K	466.99 ± 1.1
287.57 K	470.12 ± 1.1
289.49 K	473.55 ± 1.1
290 K	474.26 ± 1.1
291.41 K	476.85 ± 1.1
293.32 K	479.88 ± 1.1
295.23 K	482.95 ± 1.1
297.16 K	486.02 ± 1.1
298.15 K	487.87 ± 1.1
299.07 K	489.45 ± 1.1
300 K	490.98 ± 1.1
300.98 K	492.63 ± 1.1
